We go through one compound from ChEMBL document CHEMBL5247652, “Discovery of Novel Substrate-Competitive Lysine Methyltransferase G9a Inhibitors as Anticancer Agents” (J Med Chem, 2023).

The target of data set [1] is T1, Histone-lysine N-methyltransferase EHMT2 (Homo sapiens, UniProt Q96KQ7).
T1 sequence (Q96KQ7 whole entry): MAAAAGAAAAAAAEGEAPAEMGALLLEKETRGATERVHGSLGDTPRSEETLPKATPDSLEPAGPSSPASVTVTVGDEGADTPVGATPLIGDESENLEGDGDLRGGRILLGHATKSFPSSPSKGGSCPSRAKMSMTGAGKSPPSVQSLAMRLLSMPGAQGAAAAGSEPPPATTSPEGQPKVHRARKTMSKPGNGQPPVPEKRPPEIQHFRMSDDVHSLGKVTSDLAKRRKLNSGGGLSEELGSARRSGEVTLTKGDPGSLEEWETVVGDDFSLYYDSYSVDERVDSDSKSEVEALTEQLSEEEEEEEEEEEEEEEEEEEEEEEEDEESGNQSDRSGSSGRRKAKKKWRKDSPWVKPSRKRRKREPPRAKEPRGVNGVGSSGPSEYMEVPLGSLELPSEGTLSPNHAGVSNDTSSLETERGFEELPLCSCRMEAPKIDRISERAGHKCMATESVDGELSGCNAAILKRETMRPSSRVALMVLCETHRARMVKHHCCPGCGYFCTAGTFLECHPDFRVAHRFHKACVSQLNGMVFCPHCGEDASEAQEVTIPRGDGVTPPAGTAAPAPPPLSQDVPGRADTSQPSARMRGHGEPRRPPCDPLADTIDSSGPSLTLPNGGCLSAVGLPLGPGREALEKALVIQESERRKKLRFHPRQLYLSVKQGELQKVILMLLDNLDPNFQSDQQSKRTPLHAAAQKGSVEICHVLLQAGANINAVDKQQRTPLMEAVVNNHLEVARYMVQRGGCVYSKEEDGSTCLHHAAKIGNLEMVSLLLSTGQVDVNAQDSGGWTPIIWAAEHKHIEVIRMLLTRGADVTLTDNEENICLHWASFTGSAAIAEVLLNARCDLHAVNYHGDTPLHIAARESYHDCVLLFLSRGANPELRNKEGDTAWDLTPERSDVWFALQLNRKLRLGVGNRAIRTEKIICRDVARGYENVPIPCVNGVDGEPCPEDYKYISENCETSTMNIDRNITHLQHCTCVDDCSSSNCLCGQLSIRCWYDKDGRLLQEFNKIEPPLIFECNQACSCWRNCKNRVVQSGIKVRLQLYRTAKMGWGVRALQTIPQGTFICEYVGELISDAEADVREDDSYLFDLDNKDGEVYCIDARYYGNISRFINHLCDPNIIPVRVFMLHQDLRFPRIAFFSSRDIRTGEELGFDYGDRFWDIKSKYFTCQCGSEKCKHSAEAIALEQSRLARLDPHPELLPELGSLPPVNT
As to the kind of experiment: Inhibition of G9a (unknown origin).

Data set [2] deals with T2, Histone-lysine N-methyltransferase EHMT1 (Homo sapiens, UniProt Q9H9B1).
T2 sequence (Q9H9B1 whole entry): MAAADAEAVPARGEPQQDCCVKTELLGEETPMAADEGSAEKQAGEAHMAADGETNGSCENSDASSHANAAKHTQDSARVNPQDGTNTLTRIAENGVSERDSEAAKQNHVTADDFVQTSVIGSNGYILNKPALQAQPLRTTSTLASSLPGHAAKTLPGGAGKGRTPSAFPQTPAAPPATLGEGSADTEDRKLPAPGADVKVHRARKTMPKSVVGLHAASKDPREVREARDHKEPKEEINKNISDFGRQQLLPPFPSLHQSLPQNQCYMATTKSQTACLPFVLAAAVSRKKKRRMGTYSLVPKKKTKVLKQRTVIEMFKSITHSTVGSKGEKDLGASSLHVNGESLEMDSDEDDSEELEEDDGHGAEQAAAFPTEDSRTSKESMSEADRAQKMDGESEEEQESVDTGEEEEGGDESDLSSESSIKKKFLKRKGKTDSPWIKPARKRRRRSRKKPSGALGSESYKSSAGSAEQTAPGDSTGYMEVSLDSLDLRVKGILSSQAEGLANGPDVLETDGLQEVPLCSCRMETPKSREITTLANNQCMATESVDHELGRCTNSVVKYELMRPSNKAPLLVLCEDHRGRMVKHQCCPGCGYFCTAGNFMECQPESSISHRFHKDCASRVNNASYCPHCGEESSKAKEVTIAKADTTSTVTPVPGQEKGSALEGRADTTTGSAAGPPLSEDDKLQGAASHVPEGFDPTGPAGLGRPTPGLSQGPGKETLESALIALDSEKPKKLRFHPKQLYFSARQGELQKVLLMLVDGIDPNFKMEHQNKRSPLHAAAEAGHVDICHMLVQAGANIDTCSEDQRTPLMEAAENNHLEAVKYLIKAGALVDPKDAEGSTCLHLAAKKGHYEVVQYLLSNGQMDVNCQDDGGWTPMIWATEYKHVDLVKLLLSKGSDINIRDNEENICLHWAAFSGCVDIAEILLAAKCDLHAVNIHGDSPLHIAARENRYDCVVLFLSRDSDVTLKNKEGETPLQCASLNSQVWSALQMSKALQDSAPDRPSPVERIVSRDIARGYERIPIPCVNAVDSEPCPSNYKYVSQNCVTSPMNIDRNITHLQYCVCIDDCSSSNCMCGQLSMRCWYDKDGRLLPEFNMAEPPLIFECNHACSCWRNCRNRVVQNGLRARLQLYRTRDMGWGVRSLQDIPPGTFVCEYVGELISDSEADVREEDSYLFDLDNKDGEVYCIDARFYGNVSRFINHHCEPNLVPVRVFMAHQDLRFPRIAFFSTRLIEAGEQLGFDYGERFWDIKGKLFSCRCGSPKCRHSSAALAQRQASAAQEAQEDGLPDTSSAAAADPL
The data set can be described thus: Inhibition of GLP (unknown origin).

The test system of data set [3] is MOLT-4. As to the kind of experiment: Antiproliferative activity against human MOLT-4 cells assessed as inhibition of cell growth with replenishment of medium with compound on day 4 and 7 and measured after 12 days by ATPlite assay. Format: functional. The settings on record: MOLT-4, 288 h, time 12 day. Background: In ATP-based viability assays light output follows the ATP content of the culture.

Data set [4] relates to MOLT-4. As to the kind of experiment: Downregulation of H3K9 dimethylation in human MOLT-4 cells at 1 uM by Western blot analysis. Format: functional, cell-based. A general note: In western blotting, separated proteins are transferred to a membrane and probed.
Data set [5] in a line: Cmax in ICR mouse at 25 mg/kg, ip. The format is ADME, organism-based. Details: dose 25 mg/kg, route ip. Particulars: in vivo.
Data set [6] can be described thus: AUC (0 to infinity) in ICR mouse at 25 mg/kg, ip. The format is ADME, organism-based. Details: dose 25 mg/kg, route ip. Particulars: in vivo.
Data set [7] is described as follows: Tmax in ICR mouse at 25 mg/kg, ip. Format: ADME, organism-based. Particulars: in vivo.
Data set [8] is described as follows: Half life in ICR mouse at 25 mg/kg, ip. The format is ADME, organism-based. The settings on record: in vivo.
A further data set concerns HCC. The data set can be described thus: Antitumor activity against DEN-induced […] HCC tumor in C57BL/6 mouse at 20 to 50 mg/kg, ip measured after 48 weeks. Format: functional, organism-based. Particulars: dose 20-50 mg/kg.
Data set [9] in a line: Toxicity in C57BL/6 mouse assessed as body weight loss at 20 to 50 mg/kg, ip measured after 48 weeks. Format: organism-based. Particulars: in vivo, 8064 h, dose 20-50 mg/kg.
The test system of data set [10] is Mus musculus. The data set can be described thus: In vivo inhibition of G9a in C57BL/6 mouse liver assessed as reduction in H3K9me2 level at 20 to 50 mg/kg, ip measured after 5 days by Westernblot analysis. Format: functional, organism-based. The settings on record: dose 20-50 mg/kg, time 5.0 day.
Data set [11] in a line: Drug concentration in C57BL/6 mouse liver at 20 mg/kg, ip measured after 4 hrs. The format is ADME, organism-based. Particulars: read-out: Ct.
A short description of data set [12]: Drug concentration in C57BL/6 mouse liver at 50 mg/kg, ip measured after 4 hrs. The format is ADME, organism-based. The settings on record: read-out: Ct.
Data set [13] in a line: Drug concentration in C57BL/6 mouse plasma at 20 mg/kg, ip measured after 4 hrs. The format is ADME, organism-based.
Data set [14] in a line: Drug concentration in C57BL/6 mouse plasma at 50 mg/kg, ip measured after 4 hrs. The format is ADME, organism-based.
Data set [15] has as its system Mus musculus. As to the kind of experiment: In vivo inhibition of G9a in C57BL/6 mouse liver assessed as H3 histone methylation at 20 to 50 mg/kg, ip measured after 5 days by Westernblot analysis. Particulars: dose 20-50 mg/kg, time 5.0 day. The format is functional, organism-based.

Structures are written as SMILES. The source made the active and inactive calls.

Broadly, the IC50 is the midpoint of a concentration-inhibition curve. Higher therefore signals a need for much substance. As a reminder, the GI50 is the concentration that inhibits growth by half. One may read the Cmax as the peak of the concentration-time curve. The term AUC(0-inf) denotes the area under the concentration-time curve extrapolated to infinity. The term Tmax denotes the time at which the peak concentration occurs. What is called half-life is the time needed for the level to fall by half in the phase considered. The low end stands for fast loss, the high end for slow loss. For `Cc1c(C(=O)N[C@H](CCC2CC2)C(=O)Nc2ccc(C#N)cc2)[nH]c2c1C(=O)CC(C)(C)C2`, the IC50 was 27 nM in [1] and 53 nM in data set [2]. The GI50 with MOLT-4 [3] came to 2370 nM. For the same compound, the result with MOLT-4 [4] was inactive. For the same compound, the Cmax in data set [5] came out at 42.4 µM. The same compound gave an area under the curve AUC(0-inf) in [6] of 418 µM·h. The time of peak concentration (Tmax) in data set [7] is 4 h. Also, the half-life in [8] is 1.4 h. Besides, the result with HCC and in the data set with Mus musculus [10] was Active. The Activity entry in data set [9] is “Non-Toxic”. The concentration at 4 h amounted to 23.5 µM in [11], 46.9 µM in [12], 9.6 µM in [13] and 18.9 µM in data set [14]. Further, the inhibition result in the data set with Mus musculus [15] was “inactive”.
